Patent US20240182910A1, “DRUG-REGULATABLE TRANSCRIPTION FACTORS” (Senti Biosciences, Inc., priority 2021, published 2024)

Legend:
AlcR = AlcR (Emericella nidulans, UniProt P21228); set-up: key: A, activation; DA, deactivation; DR, derepression; details: AIR; PAIR (OalcA-PhCMVmin); cited from earlier work
[1] = molecular target: T1, mifepristone-inducible transcription factor (Homo sapiens, UniProt P06401, V660L); experiment: Transduction assay: mCherry reporter expression, mifepristone-inducible transcription factor; assay type: cell-based; details: U87-MG reporter cells, cell group E; 0, 1, 100, 1000 or 10000 nM mifepristone; FIG. 4
T1 construct: expressed in transfected cells; host or cells: U87-MG reporter cells, lentiviral transduction
T1 sequence (P06401 with tags, fused parts or gaps V660L): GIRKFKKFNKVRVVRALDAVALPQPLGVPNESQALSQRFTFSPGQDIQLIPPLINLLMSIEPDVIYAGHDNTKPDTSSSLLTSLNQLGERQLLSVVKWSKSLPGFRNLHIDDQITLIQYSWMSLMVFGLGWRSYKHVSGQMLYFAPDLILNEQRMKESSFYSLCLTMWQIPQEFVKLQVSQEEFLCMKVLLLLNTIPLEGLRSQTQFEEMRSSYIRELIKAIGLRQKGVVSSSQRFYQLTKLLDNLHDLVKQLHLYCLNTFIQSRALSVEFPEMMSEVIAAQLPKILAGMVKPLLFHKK
Protocol: On day 1, reporter cells were transduced with lentivirus encoding the mifepristone-inducible transcription factor construct.
To assay for mifepristone-regulated transcription modulation, cell group E was thawed and four days later, the cells were split into a 48-well plate and treated with 0 nM, 1 nM, 100 nM, 1000 nM, or 10000 nM mifepristone. Six days after the cells were thawed, cells were trypsinized and then resuspended in FACS buffer plus Sytox Red (fluoresces in APC channel) viability dye. Cell mCherry geometric mean fluorescent intensity (gMFI) was measured at each concentration and normalized to no drug as shown in FIG. 4.

Chain of AlcR (P21228 whole entry): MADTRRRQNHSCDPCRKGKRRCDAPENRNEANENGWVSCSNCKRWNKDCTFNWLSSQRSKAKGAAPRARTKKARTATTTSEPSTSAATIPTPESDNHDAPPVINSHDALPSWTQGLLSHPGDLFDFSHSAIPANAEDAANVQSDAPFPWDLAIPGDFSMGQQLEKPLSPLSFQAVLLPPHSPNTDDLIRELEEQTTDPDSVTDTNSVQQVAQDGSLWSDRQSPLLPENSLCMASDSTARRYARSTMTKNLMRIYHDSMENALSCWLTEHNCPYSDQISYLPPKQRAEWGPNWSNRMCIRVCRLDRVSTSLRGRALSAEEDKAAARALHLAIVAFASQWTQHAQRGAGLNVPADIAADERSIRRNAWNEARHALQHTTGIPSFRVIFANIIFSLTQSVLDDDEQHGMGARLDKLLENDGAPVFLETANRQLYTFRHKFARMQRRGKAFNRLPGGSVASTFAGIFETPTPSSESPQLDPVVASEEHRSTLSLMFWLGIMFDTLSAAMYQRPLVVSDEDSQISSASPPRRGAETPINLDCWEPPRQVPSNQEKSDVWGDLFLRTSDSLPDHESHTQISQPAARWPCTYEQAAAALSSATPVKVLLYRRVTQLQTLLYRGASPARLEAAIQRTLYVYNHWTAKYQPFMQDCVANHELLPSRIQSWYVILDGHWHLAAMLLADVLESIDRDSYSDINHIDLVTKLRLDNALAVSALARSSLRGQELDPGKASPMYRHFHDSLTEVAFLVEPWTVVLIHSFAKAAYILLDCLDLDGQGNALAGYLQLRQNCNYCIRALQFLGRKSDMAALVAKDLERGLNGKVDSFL

SMILES | Response to inducer: T (transgene transcription) (AlcR) | mCherry expression (mCherry gMFI normalized to no drug) [1]
CC=O [Acetaldehyde] | A | 
CC#C[C@]1(O)CC[C@H]2[C@@H]3CCC4=CC(=O)CCC4=C3[C@@H](c3ccc(N(C)C)cc3)C[C@@]21C [mifepristone] |  | induced mCherry expression in the presence of drug in a concentration-dependent manner
